Assay results from US7238720B2, “Pharmaceutical use of N-carbamoylazole derivatives” (Eisai R & D Management Co. Ltd., priority 2001, dated 2007).
pIC50: −log10 of the molar value.

Biological target: T1, DPP-IV, obtained from porcine kidneys (Sus scrofa, UniProt P22411)
T1 construct: DPP-IV, obtained from porcine kidneys; from tissue; host or cells: porcine kidney
Assay: Measurement of DPPIV inhibiting effects (Gly-Pro-p-nitroanilide, absorbance at 405 nm)
Type: biochemical
Conditions: porcine kidney DPP-IV 10 mU/mL, 20 min preincubation, Gly-Pro-p-nitroanilide 0.33 mM, pH 7.4
Protocol: Measurement of DPPIV Inhibiting Effects
DPP-IV, obtained from porcine kidneys, was dissolved in a reaction buffer solution (50 mM Tris-HCl, pH 7.4, 0.1% BSA) such that the concentration of DPP-IV was at 10 mU/mL. This solution (110 μl) was placed into test tubes, to which compounds to be tested were further added at a quantity of 15 μl and incubated at room temperature for 20 minutes. Twenty-five microliters of a solution in which Gly-Pro-p-nitroanilide was dissolved at 2 mM was added (final concentration, 0.33 mM) to start the enzymatic reaction. The reaction time was 20 minutes. The reaction was stopped by the addition of 25 μl of 1 N phosphoric acid.

T1 sequence (P22411 whole entry): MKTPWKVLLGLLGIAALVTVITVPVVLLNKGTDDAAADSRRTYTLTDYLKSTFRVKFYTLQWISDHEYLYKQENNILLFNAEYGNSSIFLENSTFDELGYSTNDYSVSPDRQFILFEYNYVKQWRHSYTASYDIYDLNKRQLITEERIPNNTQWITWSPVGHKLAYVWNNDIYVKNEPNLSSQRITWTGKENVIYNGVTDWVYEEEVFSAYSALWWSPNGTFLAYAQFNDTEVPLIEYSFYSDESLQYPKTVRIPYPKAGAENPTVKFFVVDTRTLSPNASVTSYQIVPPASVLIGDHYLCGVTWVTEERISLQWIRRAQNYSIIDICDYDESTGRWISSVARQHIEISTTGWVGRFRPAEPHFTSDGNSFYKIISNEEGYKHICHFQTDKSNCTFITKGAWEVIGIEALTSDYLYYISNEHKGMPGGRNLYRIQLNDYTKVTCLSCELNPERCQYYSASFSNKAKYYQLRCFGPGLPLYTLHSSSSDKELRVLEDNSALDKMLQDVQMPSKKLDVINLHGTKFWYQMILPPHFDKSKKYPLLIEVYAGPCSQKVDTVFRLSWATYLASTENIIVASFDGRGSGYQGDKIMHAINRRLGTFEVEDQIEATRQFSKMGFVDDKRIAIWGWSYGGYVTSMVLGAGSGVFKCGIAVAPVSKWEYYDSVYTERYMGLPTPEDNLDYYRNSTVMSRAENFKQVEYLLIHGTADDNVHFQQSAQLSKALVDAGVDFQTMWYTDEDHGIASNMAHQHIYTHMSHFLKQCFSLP

Row | pIC50 | Molecule
1 | 7.67 | CCN(C)C(=O)n1cnc(S(=O)(=O)[C@@H]2C[C@@H]3CC[C@H]2C3)n1 (relative stereo) [Example 24, 3-(Endo-norbornan-2-yl)sulfonyl-1-(N-methyl-N-ethylcarbamoyl)-1H-1,2,4-triazole]
2 | 6.58 | CC(C)CN(C)C(=O)n1cnc(S(=O)(=O)[C@@H]2C[C@@H]3CC[C@H]2C3)n1 (relative stereo) [Example 30, 3-(Endo-norbornan-2-yl)sulfonyl-1-(N-methyl-N-isobutylcarbamoyl)-1H-1,2,4-triazole]
3 | 5.33 | CN(C)C(=O)n1cnc(SCc2ccccc2)n1 [Example 1, 3-Benzylthio-1-dimethylcarbamoyl-1H-1,2,4-triazole]
4 | 6.11 | CCN(CC)C(=O)n1cnc(S(=O)(=O)Cc2ccccc2)n1 [Example 3, 3-Benzylsulfonyl-1-diethylcarbamoyl-1H-1,2,4-triazole]
5 | 6.18 | CN(C)C(=O)n1cnc(S(=O)(=O)Cc2ccc(F)cc2)n1 [Example 4, 3-(4-Fluorobenzyl)sulfonyl-1-dimethylcarbamoyl-1H-1,2,4-triazole]
6 | 5.87 | CN(C)C(=O)n1cnc(S(=O)(=O)Cc2ccc(C(C)(C)C)cc2)n1 [Example 5, 3-(4-Tert-butylbenzyl)sulfonyl-1-dimethylcarbamoyl-1H-1,2,4-triazole]
7 | 5.46 | CN(C)C(=O)n1cnc(SC(c2ccccc2)c2ccccc2)n1 [Example 6, 3-(Diphenylmethyl)thio-1-dimethylcarbamoyl-1H-1,2,4-triazole]
8 | 6.72 | CN(C)C(=O)n1cnc(S(=O)(=O)C(c2ccccc2)c2ccccc2)n1 [Example 7, 3-(Diphenylmethyl)sulfonyl-1-dimethylcarbamoyl-1H-1,2,4-triazole]
9 | 5.47 | CN(C)C(=O)n1cnc(SC(c2ccc(F)cc2)c2ccc(F)cc2)n1 [Example 8, 3-[Bis(4-fluorophenyl)methyl]thio-1-dimethylcarbamoyl-1H-1,2,4-triazole]
10 | 6.66 | CN(C)C(=O)n1cnc(S(=O)(=O)C(c2ccc(F)cc2)c2ccc(F)cc2)n1 [Example 9, 3-[Bis(4-fluorophenyl)methyl]sulfonyl-1-dimethylcarbamoyl-1H-1,2,4-triazole]
11 | 6.16 | CN(C)C(=O)n1cnc(SC2CCOc3ccccc32)n1 (stereo not drawn) [Example 10, 3-(Chroman-4-yl)thio-1-dimethylcarbamoyl-1H-1,2,4-triazole]
12 | 6.67 | CN(C)C(=O)n1cnc(S(=O)(=O)C2CCOc3ccccc32)n1 (stereo not drawn) [Example 11, 3-(Chroman-4-yl)sulfonyl-1-dimethylcarbamoyl-1H-1,2,4-triazole]
13 | 5.65 | CN(C)C(=O)n1cnc(SC2CCCCC2)n1 [Example 14, 3-Cyclohexylthio-1-dimethylcarbamoyl-1H-1,2,4-triazole]
14 | 6.51 | CN(C)C(=O)n1cnc(S(=O)(=O)C2CCCCC2)n1 [Example 15, 3-Cyclohexylsulfonyl-1-dimethylcarbamoyl-1H-1,2,4-triazole]
15 | 5.26 | CN(C)C(=O)n1cnc(SCC2CCCCC2)n1 [Example 16, 3-Cyclohexylmethylthio-1-dimethylcarbamoyl-1H-1,2,4-triazole]
16 | 6.38 | CN(C)C(=O)n1cnc(S(=O)(=O)CC2CCCCC2)n1 [Example 17, 3-Cyclohexylmethylsulfonyl-1-dimethylcarbamoyl-1H-1,2,4-triazole]
17 | 5.34 | CN(C)C(=O)n1cnc(SCC23CC4CC(CC(C4)C2)C3)n1 [Example 18, 3-(1-Adamantylmethyl)thio-1-dimethylcarbamoyl-1H-1,2,4-triazole]
18 | 6.63 | CN(C)C(=O)n1cnc(S(=O)(=O)CC23CC4CC(CC(C4)C2)C3)n1 [Example 19, 3-(1-Adamantylmethyl)sulfonyl-1-dimethylcarbamoyl-1H-1,2,4-triazole]
19 | 5.86 | CC(C)CCS(=O)(=O)c1ncn(C(=O)N(C)C)n1 [Example 20, 3-(3-Methylbutyl)sulfonyl-1-dimethylcarbamoyl-1H-1,2,4-triazole]
20 | 6.16 | CN(C)C(=O)n1cnc(S(=O)(=O)CC(C)(C)C)n1 [Example 21, 3-(2-Dimethylpropyl)sulfonyl-1-dimethylcarbamoyl-1H-1,2,4-triazole]
21 | 8.02 | Cc1cc(C)c(S(=O)(=O)c2ncn(C(=O)N(C)C)n2)c(C)c1 [Example 33, 3-(2,4,6-Trimethylphenyl)sulfonyl-1-dimethylcarbamoyl-1H-1,2,4-triazole]
22 | 5.82 | Cc1cc(C)c(S(=O)(=O)c2ncn(C(=O)N(C)c3ccccc3)n2)c(C)c1 [Example 35, 3-(2,4,6-Trimethylphenyl)sulfonyl-1-(N-methyl-N-phenylcarbamoyl)-1H-1,2,4-triazole]
23 | 9.46 | CCN(C)C(=O)n1cnc(S(=O)(=O)c2c(C)cc(C)cc2C)n1 [Example 36, 3-(2,4,6-Trimethylphenyl)sulfonyl-1-(N-methyl-N-ethylcarbamoyl)-1H-1,2,4-triazole]

Row | Molecule | pIC50
24 | 3-(Endo-norbornan-2-yl)sulfonyl-1-(N-methyl-N-phenylcarbamoyl)-1H-1,2,4-triazole [Example 22] | 5.64
25 | CN(C)C(=O)n1cnc(S[C@@H]2C[C@@H]3CC[C@H]2C3)n1 (relative stereo) [Example 12, 3-(Endo-norbornan-2-yl)thio-1-dimethylcarbamoyl-1H-1,2,4-triazole] | 5.76
26 | O=C(N1CCSC1)n1cnc(S(=O)(=O)[C@@H]2C[C@@H]3CC[C@H]2C3)n1 (relative stereo) [Example 25, 3-(Endo-norbornan-2-yl)sulfonyl-1-(1,3-thiazolidin-3-yl)carbonyl-1H-1,2,4-triazole] | 7.24
27 | O=C(N1CCCC1)n1cnc(S(=O)(=O)[C@@H]2C[C@@H]3CC[C@H]2C3)n1 (relative stereo) [Example 26, 3-(Endo-norbornan-2-yl)sulfonyl-1-(pyrrolidin-1-yl)carbonyl-1H-1,2,4-triazole] | 6.61
28 | C=CCN(C)C(=O)n1cnc(S(=O)(=O)[C@@H]2C[C@@H]3CC[C@H]2C3)n1 (relative stereo) [Example 27, 3-(Endo-norbornan-2-yl)sulfonyl-1-(N-methyl-N-allylcarbamoyl)-1H-1,2,4-triazole] | 7.11
29 | CCCN(C)C(=O)n1cnc(S(=O)(=O)[C@@H]2C[C@@H]3CC[C@H]2C3)n1 (relative stereo) [Example 28, 3-(Endo-norbornan-2-yl)sulfonyl-1-(N-methyl-N-propylcarbamoyl)-1H-1,2,4-triazole] | 7.23
30 | CC(C)N(C)C(=O)n1cnc(S(=O)(=O)[C@@H]2C[C@@H]3CC[C@H]2C3)n1 (relative stereo) [Example 29, 3-(Endo-norbornan-2-yl)sulfonyl-1-(N-methyl-N-isopropylcarbamoyl)-1H-1,2,4-triazole] | 8.05
31 | CN(C(=O)n1cnc(S(=O)(=O)[C@@H]2C[C@@H]3CC[C@H]2C3)n1)C(C)(C)C (relative stereo) [Example 31, 3-(Endo-norbornan-2-yl)sulfonyl-1-(N-methyl-N-tert-butylcarbamoyl)-1H-1,2,4-triazole] | 6.04
32 | Cc1cc(C)c(Sc2ncn(C(=O)N(C)C)n2)c(C)c1 [Example 32, 3-(2,4,6-Trimethylphenyl)thio-1-dimethylcarbamoyl-1H-1,2,4-triazole] | 5.43
33 | CCN(CC)C(=O)n1cnc(S(=O)(=O)c2c(C)cc(C)cc2C)n1 [Example 34, 3-(2,4,6-Trimethylphenyl)sulfonyl-1-diethylcarbamoyl-1H-1,2,4-triazole] | 5.18
